# Columns and labels:
# [1] = Determination of lipophilicity and pKa values by HPLC; assay type: physicochemical; details: HPLC method
# Protocol: The physicochemical parameters of the rhenium complexes, i.e. lipophilicity log P, log D(pH 7.4), and pKa (Table 2) were determined using HPLC methods (Braumann, T.; Grimme, L. H. Determination of Hydrophobic Parameters for Pyridazinone Herbicides by Liquid-Liquid Partition and Reversed-Phase High-Performance Liquid Chromatography. J. Chromatogr. 1981, 206, 7-15; Stytli, C.; Theobald, A. E. Determination of Ionization Constants of Radiopharmaceuticals in Mixed Solvents by HPLC. Appl. Radiat. Isot., 1987, 38, 701-708; Johannsen, B.; Scheunemann, M.; Spies, H.; Brust, P.; Wober, J.; Syhre, R.; Pietzsch, H.-J. Technetium(V) and Rhenium(V) Complexes for 5-HT2A Serotonin Receptor Binding: Structure-Affinity Considerations. Nucl. Med. Biol., 1996, 23, 429-438; and Johannsen, B.; Berger, R.; Brust, P.; Pietzsch, H.-J; Scheunemann, M.; Seifert, S.; Spies, H.; Syhre, R. Structural Modification of Receptor-Binding Technetium-99m Complexes in Order to Improve Brain Uptake. Eur. J. Nucl. Med. 1997, 24, 316-319). […] Since log D(pH 7.4) is a composite measure of log P and pKa, the log D(PH 7.4) of Re-Compound B (1.9) is also higher than that of Re-Compound A (1.1). […] With pKa values >9 for complexes Re-Compound C and Re-Compound D, the resulting low log D(PH 7.4) values of −0.5 (Re-Compound C) and 0.7 (Re-Compound D) are not surprising, since the complexes would exist in a protonated form at pH 7.4.
# Determination of Lipophilicity and pKa Values. The lipophilicity and pKa values of all complexes were determined using HPLC methods described previously (Stylli, C.; Theobald, A. E. Determination of Ionization Constants of 4 Radiopharmaceuticals in Mixed Solvents by HPLC. Appl. Radiat. Isot., 1987, 38, 701-708; Johannsen, B.; Scheunemann, M.; Spies, H.; Brust, P.; Wober, J.; Syhre, R.; Pietzsch, H.-J. Technetium(V) and Rhenium(V) Complexes for 5-HT2A Serotonin Receptor Binding: Structure-Affinity Considerations. Nucl. Med. Biol., 1996, 23, 429-438; and Johannsen, B.; Berger, R.; Brust, P.; Pietzsch, H.-J.; Scheunemann, M.; Seifert, S.; Spies, H.; Syhre, R. Structural Modification of Receptor-Binding Technetium-99m Complexes in Order to Improve Brain Uptake. Eur. J. Nucl. Med. 1997, 24, 316-319). […] The mobile phase was acetonitrile:phosphate buffer (0.01 M), 3:1, v/v, with the aqueous buffer adjusted to the desired pH between 3 and 11. The capacity factor (k′) was calculated for each determination (Braumann, T.; Grimme, L. H. Determination of Hydrophobic Parameters for Pyridazinone Herbicides by Liquid-Liquid Partition and Reversed-Phase High-Performance Liquid Chromatography. J. Chromatogr. 1981, 206, 7-15; El Tayer, N.; van der Waterbeemd, H.; Testa, B. Lipophilicity Measurements of Protonated Basic Compounds by Reversed-Phase High-Performance Liquid Chromatography. II. Procedure for the Determination of a Lipophilic Index Measured by Reversed-Phase High Performance Liquid Chromatography. J. Chromatogr. 1985, 320, 305-312; and Minick, D. J.; Frenz, J. H.; Patrick, M. A.; Brent, D. A. A Comprehensive Method for Determining Hydrophobicity Constants by Reversed-Phase High-Performance Liquid Chromatography. J. Med. Chem., 1988, 31, 1923-1933) and the partition coefficient at a given pH (D or log D) were calculated from the equation: log D=a log k′+b where the parameters a and b are predetermined using standard amines. The fitted points of inflection from the sigmoidal DHPLC/pH profiles permit calculation of the pKHPLC(Stylli, C.; Theobald, A. E. Determination of Ionization Constants of Radiopharmaceuticals in Mixed Solvents by HPLC. Appl. Radiat. Isot., 1987, 38, 701-708). The aqueous ionization constants pKa were calculated from the pKHPLC values after correction with a predetermined correction factor obtained using standard amine compounds. Log P values of the neutral complexes were estimated from the respective upper plateau of the sigmoidal log D/pH curve in the alkaline range.
# [2] = tested on: B16/F0 murine melanoma cells; assay: In-vitro tumor-cell uptake, melanoma cells; assay type: cell-based; details: 37° C., B16/F0 cell line
# Protocol: In-Vitro Tumor-Uptake Studies. Tumor-cell uptake studies in B16/F0 murine melanoma cells were performed with complexes Tc-(Compound A-D and H-M) at 37° C. and 4° C. Additionally, tumor-cell uptake of complex Tc-(Compound A) was investigated in another rapidly dividing MCF-7 human breast cancer cell line.
# In-Vitro Cell Studies. Murine B16/F0 melanoma cells and human MCF-7 breast cancer cells were obtained from American Type Culture Collection, Manassas Va., (ATCC) and were grown in T-175 flasks in 14 mL Dulbecco's Modified Eagle Medium (D-MEM; Gibco, Life Technology, Gaithersburg, Md.) containing 4500 mg/L D-glucose, L-glutamine, and pyridoxine hydrochloride, 110 mg/L sodium pyruvate, 10% fetal bovine serum (FBS), 0.2% gentamicin and 0.5% penicillin-streptomycin solution. All cells were harvested from cell culture flasks by trypsinization with 1 mL trypsin-EDTA solution (0.25% trypsin, 1 mM EDTA×4 Na) (Gibco). After being washed with 12 mL Dulbecco's Phosphate-Buffered Saline (PBS) (Gibco), pH 7.2 (Ca^2+- and Mg^2+-free; g/L KCl, 0.20; KH2PO4, 0.20; NaCl, 8.00; Na2HPO4, 1.15), the cells were counted and resuspended in 8 mL S-MEM (Gibco) (Ca^2+ free, with reduced Mg^2+ content) and stored at 4° C. until use.
# For in-vitro tumor-cell accumulation studies, 5×10^6 cells in polypropylene test tubes were incubated at 37° C. or 4° C., with intermittent agitation with 1-2 μCi (5 μL) ^99mTc-complex Tc-(Compound A-D) in a total volume of 350 μL S-MEM. At appropriate time intervals the tubes were vortexed and 8-μL samples were layered on 350 μL cold FBS in a 400-μL Eppendorf microcentrifuge tube. After centrifugation at 15,000 rpm for 2 min, the tubes were frozen in a dry ice-acetone bath. While still frozen, the bottom tip of the microcentrifuge tube containing the cell pellet was cut and placed in a counting tube. The remaining portion of the tube with the supernatant was placed in a separate counting tube. Both fractions were counted for radioactivity in a γ-counter (WALLAC, 1480 WIZARD 3″™). The amount of supernatant in the cell pellet was determined to be <1% in separate experiments. The percentage cell uptake of the ^99mTc-complex was calculated as: % uptake=[cpm(pellet)]/[cpm(pellet)+cpm(supernatant)]×100
log P [1],pKa [1],log D(pH 7.4) [1],Compound,maximal cell uptake [2] [%]
3.3,7.7,1.9,CCCCN(CCCC)CCN1CC[S][99Tc]2(=[O])[S]CC[N]2C(=O)C1 (stereo not shown) [Tc-(Compound B)],12
–,7.7,≈ 1,CCN(CC)CCN1CC[S][99Tc]2(=[O])[S]CC[N]2C(=O)C1 (stereo not shown) [Tc-(Compound A)],43
